Here are results for 5 compounds from patent publication US5874442A, “Tricyclic amides useful for inhibition of G-protein function and for treatment of proliferative disease” (Schering-Plough Corporation, priority 1996, dated 1999).

For assay [1], the system named is T24-BAG4 human bladder carcinoma cells expressing an activated H-ras gene. Kind of assay: Cell mat assay, T24-BAG4 tumor cells. The assay is classed as cell-based. Particulars: Homo sapiens, 336 h, read-out: Tumor (T-24) IC50. The method, then: (§1) Compound-induced colony inhibition was assayed by addition of serial dilutions of compound directly to the growth medium 24 h after tumor cell planting, and incubating cells for an additional 14 d to allow colony formation. Assays were terminated by rinsing monolayers twice with phosphate-buffered saline (PBS), fixing the monolayers with a 1% glutaraldehyde solution in PBS, then visualizing tumor cells by staining with X-Gal (Price, J., et al., Lineage analysis in the vertebrate nervous system by retrovirus-mediated gene transfer, Proc. Natl. Acad. Sci.84, 156-160(1987)). […] Both IC50 values were obtained by determining the density of tumor cells and mat cells by visual inspection and enumeration of cells per colony and the number of colonies under the microscope.

The target in assay [2] is T1, geranylgeranyl protein transferase (GGPT) I (Rattus norvegicus, UniProt P53610+Q04631).
T1 construct: were partially purified from rat brain by ammonium sulfate fractionation; from tissue; host or cells: rat brain (ammonium sulfate fractionation, Q-Sepharose)
T1 sequence (P53610 whole entry, one chain of several): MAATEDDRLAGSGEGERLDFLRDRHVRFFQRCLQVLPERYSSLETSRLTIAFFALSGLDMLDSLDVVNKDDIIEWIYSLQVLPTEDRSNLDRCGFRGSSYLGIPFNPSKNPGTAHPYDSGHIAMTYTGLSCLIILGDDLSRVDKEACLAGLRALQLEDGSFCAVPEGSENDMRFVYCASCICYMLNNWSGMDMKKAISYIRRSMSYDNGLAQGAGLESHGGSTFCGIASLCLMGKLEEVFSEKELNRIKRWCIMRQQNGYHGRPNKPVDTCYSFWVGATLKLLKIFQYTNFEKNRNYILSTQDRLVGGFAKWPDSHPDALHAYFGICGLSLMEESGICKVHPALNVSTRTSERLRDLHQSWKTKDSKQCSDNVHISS
Briefly: In vitro enzyme assay: inhibition of geranylgeranyl protein transferase I (GGPT), Ras-CVLL as acceptor. The assay is classed as biochemical. The source says:
(§2) 1. In vitro enzyme assays:
(§3) Inhibition of farnesyl protein transferase and geranylgeranyl protein transferase.
Both farnesyl protein transferase (FPT) and geranylgeranyl protein transferase (GGPT) I were partially purified from rat brain by ammonium sulfate fractionation followed by Q-Sepharose (Pharmacia, Inc.) anion exchange chromatography essentially as described by Yokoyama et al (Yokoyama, K., et al., (1991), A protein geranylgeranyltransferase from bovine brain: Implications for protein prenylation specificity, Proc. Natl. Acad. Sci USA 88: 5302-5306, the disclosure of which is incorporated herein by reference thereto). Human farnesyl protein transferase was also expressed in E. coli, using cDNA clones encoding both the a and b subunits. The methods used were similar to those published (Omer, C. et al., (1993), Characterization of recombinant human farnesyl protein transferase: Cloning, expression, farnesyl diphosphate binding, and functional homology with yeast prenyl-protein transferases, Biochemistry 32:5167-5176). Human farnesyl protein transferase was partially-purified from the soluble protein fraction of E. coli as described above. The tricyclic farnesyl protein transferase inhibitors disclosed herein inhibited both human and rat enzyme with similar potencies. […]

Assay [3] has as its system Normal human HEPM fibroblasts. Kind of assay: Cell mat assay, normal cells (cell mat). The format is cell-based. Particulars: Homo sapiens, Fibroblast, 336 h, read-out: Normal IC50. The protocol:
as §1

The subject of assay [4] is SW620-BAG human colon carcinoma cells expressing an activated K-ras gene. Kind of assay: Cell mat assay, SW620-BAG tumor cells. The format is cell-based. Particulars: Homo sapiens, SW-620, 336 h, read-out: Tumor (SW620) IC50, Mat assay, 14 d. The method, then: as §1
(§4) Additional assays were carried out by following essentially the same procedure as described above, but with substitution of alternative indicator tumor cell lines in place of the T24-BAG cells. The assays were conducted using either DLD-1-BAG human colon carcinoma cells expressing as activated K-ras gene or SW620-BAG human colon carcinoma cells expressing an activated K-ras gene.

For assay [5], the target named is T2, farnesyl protein transferase (FPT) (Rattus norvegicus, UniProt Q02293+Q04631).
T2 construct: were partially purified from rat brain by ammonium sulfate fractionation; from tissue; host or cells: rat brain (ammonium sulfate fractionation, Q-Sepharose)
Briefly: In vitro enzyme assay: inhibition of farnesyl protein transferase (FPT), [3H]farnesyl transfer to Ras-CVLS. The assay is classed as biochemical. The method, then: as §2, §3
Human farnesyl protein transferase was also expressed in E. coli, using cDNA clones encoding both the a and b subunits. […] Human farnesyl protein transferase was partially-purified from the soluble protein fraction of E. coli as described above. […] Two forms of val^12 -Ha-Ras protein were prepared as substrates for these enzymes, differing in their carboxy terminal sequence. One form terminated in cysteine-valine-leucine-serine (Ras-CVLS) the other in cystein-valine-leucine-leucine (Ras-CVLL). Ras-CVLS is a substrate for the farnesyl protein transferase while Ras-CVLL is a substrate for geranylgeranyl protein transferase I. The cDNAs encoding these proteins were constructed so that the proteins contain an amino-terminal extension of 6 histidine residues. Both proteins were expressed in Escherichia coli and purified using metal chelate affinity chromatography. The radiolabelled isoprenyl pyrophosphate substrates, [^3 H]farnesyl pyrophosphate and [^3 H] geranylgeranyl pyrophosphate, were purchased from DuPont/New England Nuclear.
The reaction was allowed to proceed for 30 minutes at room temperature and then stopped with 0.5 ml of 4% sodium dodecyl sulfate (SDS) followed by 0.5 ml of cold 30% TCA. Samples were allowed to sit on ice for 45 minutes and precipitated Ras protein was then collected on GF/C filter paper mats using a Brandel cell harvester. […] Percent inhibition was calculated relative to the DMSO vehicle control.

Assay [6] deals with DLD-1-BAG human colon carcinoma cells. Kind of assay: Cell mat assay, DLD-1-BAG tumor cells. The format is cell-based. Particulars: Homo sapiens, DLD-1, 336 h, read-out: Tumor (DLD-1) IC50. The protocol: as §1, §4
In assay [7] the test system is Ras-CVLS processing in COS cells. Kind of assay: Cell-based COS cell assay: inhibition of Ras processing (Ras-CVLS). Also noted: species or system monkey. Particulars: Primates, COS. The source says:
(§5) Transient expression of val^12 -Ha-Ras-CVLS and […] -Ha-Ras-CVLL in COS monkey kidney cells: Effect of farnesyl protein transferase inhibitors on Ras processing and on disordered cell growth induced by transforming Ras.
COS monkey kidney cells were transfected by electroporation with the plasmid pSV-SPORT (Gibco/BRL) containing a cDNA insert encoding either Ras-CVLS or Ras-CVLL, leading to transient overexpression of a Ras substrate for either farnesyl protein transferase or geranylgeranyl protein transferase I, respectively (see above).
Following electroporation, cells were plated into 6-well tissue culture dishes containing 1.5 ml of Dulbecco's-modified Eagle's media (GIBCO, Inc.) supplemented with 10% fetal calf serum and the appropriate farnesyl protein transferase inhibitors. After 24 hours, media was removed and fresh media containing the appropriate drugs was re-added.
48 hours after electroporation cells were examined under the microscope to monitor disordered cell growth induced by transforming Ras. Cells expressing transforming Ras become more rounded and refractile and overgrow the monolayer, reminiscent of the transformed phenotype. Cells were then photographed, washed twice with 1 ml of cold phosphate-buffered saline (PBS) and removed from the dish by scraping with a rubber policeman into 1 ml of a buffer containing 25 mM Tris, pH 8.0; 1 mM ethylenediamine tetraacetic acid; 1 mM phenylmethylsulfonyl fluoride; […]; and 0.1 mM pepstatin. Cells were lysed by homogenization and cell debris was removed by centrifugation at 2000× g for 10 min.
Cellular protein was precipitated by addition of ice-cold trichloroacetic acid and redissolved in […] of SDS-electrophoresis sample buffer. […] Proteins resolved on the gels were electroblotted onto nitrocellulose membranes for immunodetection.
After washing, membranes were incubated for one hour at room temperature with a 1:5000 dilution of secondary antibody, rabbit anti-rat lgG conjugated to horseradish peroxidase, in PBS containing 1% fetal calf serum. The presence of processed and unprocessed Ras-CVLS or Ras-CVLL was detected using a colorimetric peroxidase reagent (4-chloro-1-naphthol) as described by the manufacturer (Bio-Rad).

Another assay relates to H ras NIH 3T3. Kind of assay: Soft agar assay. The format is cell-based. Particulars: Mus musculus, NIH3T3, read-out: IC50, inhibition of human tumor cell growth, soft agar.
Another assay concerns K ras NIH 3T3. Briefly: Soft agar assay. The assay is classed as cell-based. Particulars: Mus musculus, NIH3T3, read-out: IC50, inhibition of human tumor cell growth, soft agar.
In assay [8] the test system is DLD-1 (human colon carcinoma cells). Briefly: In vivo anti-tumor studies, subcutaneous DLD-1 tumors in athymic nu/nu mice. On the set-up: species or system athymic nu/nu female mice. Particulars: Mus musculus, DLD-1, po, […], QID, 7 days per week for 4 weeks, read-out: Average % Tumor Inhibition; for inhibition in vivo at 50 mg/kg: 50 mg/kg p.o.; for inhibition in vivo at 10 mg/kg: 10 mg/kg p.o.
Experimental: Tumor bearing animals are selected and randomized when the tumors are established. Animals are treated with vehicle (β-cyclodextrin for i.p. or corn oil for p.o.) only or with a compound of the present invention in vehicle four times a day (QID) for 7 days per week for 4 weeks. The percent inhibition of tumor growth relative to vehicle controls is determined by tumor measurements.

The subject of another assay is A549. Briefly: Soft agar assay. Particulars: Homo sapiens; A549 (lung) K ras mutation; read-out: IC50, inhibition of human tumor cell growth, soft agar. The assay is classed as cell-based. The method, then: (§6) Anchorage-independent growth is a characteristic of tumorigenic cell lines. Human tumor cells are suspended in growth medium containing 0.3% agarose and an indicated concentration of a farnesyl transferase inhibitor. The solution is overlayed onto growth medium solidified with 0.6% agarose containing the same concentration of farnesyl transferase inhibitor as the top layer. […] After incubation, the colonies are stained by overlaying the agar with a solution of MTT (3-[4,5-dimethylthiazol-2-yl]-2,5-diphenyltetrazolium bromide, Thiazolyl blue) (1 mg/mL in PBS). Colonies are counted and the IC50's determined.

Another assay has as its system HTB 177. Briefly: Soft agar assay. The assay is classed as cell-based. Particulars: Homo sapiens; HTB 177 (NSCLC) K ras mutation; read-out: IC50, inhibition of human tumor cell growth, soft agar. The protocol: as §6
Another assay concerns HTB 175. Briefly: Soft agar assay. The assay is classed as cell-based. Particulars: Homo sapiens; HTB 175 (SCLC) ras mut. not detected; read-out: IC50, inhibition of human tumor cell growth, soft agar. The protocol: as §6
The subject of assay [9] is geranylgeranylation of Ras-CVLL in COS cells. Kind of assay: Cell-based COS cell assay: geranylgeranylation of Ras-CVLL. Also noted: species or system monkey. Particulars: at concentrations up to 33 μM.
Text: as §5
COS monkey kidney cells were transfected by electroporation with the plasmid pSV-SPORT (Gibco/BRL) containing a cDNA insert encoding either Ras-CVLS or Ras-CVLL, leading to transient overexpression of a Ras substrate for either farnesyl protein transferase or geranylgeranyl protein transferase I, respectively (see above). […]
Membranes were blocked by incubation overnight at 4° C. in PBS containing 2.5% dried milk and 0.5% Tween-20 and then incubated with a Ras-specific monoclonal antibody, Y13-259 (Furth, M. E., et al., (1982), Monoclonal antibodies to the p21 products of the transforming gene of Harvey murine sarcome virus and of the cellular ras gene family, J. Virol. 43:294-304), in PBS containing 1% fetal calf serum for one hour at room temperature. […] The presence of processed and unprocessed Ras-CVLS or Ras-CVLL was detected using a colorimetric peroxidase reagent (4-chloro-1-naphthol) as described by the manufacturer (Bio-Rad).

Like-named read-outs stand apart in the source and are kept apart here.

As to `O=C(Cc1cc[n+]([O-])cc1)N1CCN(C2c3ccc(Cl)c(Br)c3CCc3cc(Br)cnc32)CC1` (racemic) [Example 5B], the concentration for half-maximal inhibition (IC50) in assay [1] is less than 1600 nM; in assay [2], greater than 300000 nM; in assay [3], greater than 25000 nM; in [4] it was 10000 nM; in assay [5] it was roughly 3 nM; in assay [6], 3100 nM. Moreover, in assay [7] (read-out: Inhibition of Ras Processing IC50, Table 3, COS cells), the half-inhibitory concentration (IC50) was 50 nM.

As for `NC(=O)N1CCC(CC(=O)N2CCC(C3c4ncc(Br)cc4CCc4cc(Cl)cc(Cl)c43)CC2)CC1` (single isomer, unassigned) [Example 18], the half-maximal inhibitory concentration (IC50) in the assay with H ras NIH 3T3 is 175 nM; in the assay on K ras NIH 3T3 it was 800 nM; in the assay on A549, 300 nM; with HTB 177, 200 nM; in the assay with HTB 175, 600 nM. In addition, the inhibition in vivo at 50 mg/kg in [8] (Experiment No. 1) was 73%. Besides, the inhibition in vivo at 10 mg/kg in assay [8] (Experiment No. 2) was 43%.

As to `O=C(Cc1cc[n+]([O-])cc1)N1CCN(C2c3ncc(Br)cc3CCc3cccc(Cl)c32)CC1` (single isomer, unassigned) [Example 20], the IC50 was greater than 38000 nM in assay [2] and 6.2 nM in [5].

On to `O=C(Cc1cc[n+]([O-])cc1)N1CCC(=C2c3ccc(Cl)c(Br)c3CCc3cc(Br)cnc32)CC1` [Example 2], for which the inhibition in vivo at 50 mg/kg came out at 47% in assay [8] (Experiment No. 1) and 52.7% in assay [8] (Experiment No. 3). Moreover, the inhibition in vivo at 10 mg/kg in assay [8] (Experiment No. 2) came out at 25%; in assay [8] (Experiment No. 4), 31.9%. The “block of geranylgeranylation of Ras-CVLL” value in [9] is reported as “did not block the geranylgeranylation of Ras-CVLL”. The IC50 in [7] (Table 3, COS cells, read-out: Inhibition of Ras Processing IC50) is 250 nM.

Turning to `O=C(Cc1cc[n+]([O-])cc1)N1CCN([C@@H]2c3ccc(Cl)c(Br)c3CCc3cc(Br)cnc32)CC1` [Example 5A], the IC50 was 12500 nM in assay [1]; greater than 25000 nM in assay [3]; greater than 25000 nM in assay [4]; greater than 99 nM in [5]; 12500 nM in assay [6].
